Data on 3 compounds can be found in US11439642B2 (Adverio Pharma GmbH, priority 2010, dated 2022).

Molecules are shown by their SMILES.

The nature of this data set: Pharmacokinetic parameters following intravenous administration in rats. The note with it: rat; for MRT / half-life: male, Wistar, plasma, iv. Type of data set: in vivo. On the procedure: The pharmacokinetic parameters of the substance are determined in male CD-1 mice, male Wistar rats and female beagles. The administration volume is 10 ml/kg for mice, 5 ml/kg for rats and 0.5 ml/kg for dogs. Intravenous administration is via a formulation of species-specific plasma/DMSO (99/1) in the case of mice and rats and via water/PEG400/ethanol (50/40/10) in the case of dogs. For easier removal of blood, a silicone catheter is inserted into the right Vena jugularis externa of the rats before the administration of substance. The surgical intervention takes place one day prior to the experiment with isofluran anaesthesia and administration of an analgetic (atropine/rimadyl (3/1) 0.1 ml s.c.). Substance administration is as i.v. bolus in the case of mice, as i.v. bolus or via a 15-minute infusion in the case of rats and via a 15-minute infusion in the case of dogs. Removal of blood is after 0.033, 0.083, 0.17, 0.5, 1, 2, 3, 4, 6, 7 and 24 hours in the case of mice and, after a 15-minute infusion, after 0.083, 0.25, 0.28 0.33, 0.42, 0.75, 1, 2, 3, 4, 6, 7 and 24 hours in the case of dogs and rats and after an i.v. bolus administration, after 0.033, 0.083, 0.17, 0.5, 1, 2, 3, 4, 6, 7 and 24 hours in the case of rats. For all species, oral administration of the dissolved substance via gavage is carried out based on a water/PEG400/ethanol formulation (50/40/10). Here, the removal of blood from rats and dogs is after 0.083, 0.17, 0.5, 0.75, 1, 2, 3, 4, 6, 7 and 24 hours. The blood is removed into heparinized tubes. The blood plasma is then obtained by centrifugation; if required, it can be stored at −20° C. until further processing.
An internal standard (ZK 228859) is added to the unknown samples, calibration samples and QCs, and the protein is precipitated using excess acetonitrile. After addition of an ammonium acetate buffer (0.01 M, pH 6.8 (Example 1/3) or pH 3.0 (Example 2)) and subsequent vortexing, the mixture is centrifuged at 1000 g and the supernatant is examined by LC-MS/MS (API 4000, AB Sciex). Chromatographic separation is carried out on an Agilent 1100-HPLC. The injection volume is 10 μl. The separation column used is a Phenomenex Luna 5μ C8(2) 100 A 50×2 mm, adjusted to a temperature of 40° C. For Example 1, a binary mobile phase gradient at 400 μl/min is used (A: 0.01M ammonium acetate buffer pH 6.8, B: 0.1% formic acid in acetonitrile): 0 min (90% A), 1 min (90% A), 3.5 min (15% A), 4.5 min (15% A), 4.6 min (90% A), 7 min (90% A). For Example 2, a binary mobile phase gradient at 500 μl/min is used instead (A: 0.01M ammonium acetate buffer pH 3.0, B: 0.1% formic acid in acetonitrile): 0 min (90% A), 1.5 min (90% A), 3.5 min (10% A), 4.5 min (10% A), 5 min (90% A), 7 min (90% A). For Example 3, a binary mobile solvent gradient at 500 μl/min is used instead (A: 0.01M ammonium acetate buffer pH 6.8, B: 0.1% formic acid in acetonitrile): 0 min (90% A), 1 min (90% A), 3 min (10% A), 4 min (10% A), 4.5 min (90% A), 6 min (90% A). The temperature of the Turbo V ion source is 500° C. The following MS instrument parameters are used: curtain gas 20 units (Example 1), 16 units (Example 2) or 15 units (Example 3), ion spray voltage 5 kV (Example 1/2) or 4.5 units (Example 3), gas 1 35 units (Example 1/3) or 25 units (Example 2), gas 2 30 units, CAD gas 4 units (Example 1/3) or 3 units (Example 2). The substances are quantified by peak heights or areas using extracted ion chromatograms of specific MRM experiments.
The plasma concentration/time plots determined are used to calculate the pharmacokinetic parameters such as AUC, Cmax, MRT (mean residence time), t1/2 (half life) and CL (clearance) employing the validated pharmacokinetic calculation programs KinEx (Vers. 2.5 and 3).
As the substance quantification is carried out in plasma, it is necessary to determine the blood/plasma distribution of the substance to be able to adjust the pharamacokinetic parameters in an appropriate manner. […]

[1] abbreviates: 0.3 mg/kg i.v., 15-minute infusion.
Setting [2] is: 0.3 mg/kg i.v. bolus administration.

`COC(=O)Nc1c(N)nc(-c2nn(Cc3ccccc3F)c3ncc(F)cc23)nc1N` [Example 1, Methyl {4,6-diamino-2-[5-fluoro-1-(2-fluorobenzyl)-1H-pyrazolo[3,4-b]pyridin-3-yl]pyrimidin-5-yl}carbamate]: under setting [1], the MRT came to 4.1 h, the half-life was 3.4 h, the AUCnorm was found to be 4.36 kg·h/L and the CLblood worked out at 0.29 lh/kg.
Under setting [2], `COC(=O)N(C)c1c(N)nc(-c2nn(Cc3ccccc3F)c3ncc(F)cc23)nc1N` [Example 2] gave an MRT of 2.3 h, a half-life of 1.7 h, an AUCnorm of 1.79 kg·h/L and a CLblood of 0.53 lh/kg.
`COC(=O)N(CC(F)(F)F)c1c(N)nc(-c2nn(Cc3ccccc3F)c3ncc(F)cc23)nc1N` [Example 3, Methyl {4,6-diamino-2-[5-fluoro-1-(2-fluorobenzyl)-1H-pyrazolo[3,4-b]pyridin-3-yl]pyrimidin-5-yl}(2,2,2-trifluoroethyl)carbamate]: under setting [2], the MRT turned out to be 2.3 h, the half-life is 1.9 h, the AUCnorm turned out to be 1.36 kg·h/L and the CLblood turned out to be 1.02 lh/kg.

As a reminder, the MRT is the average time that molecules of a dose stay in the body. Broadly, the half-life is how long it takes for the measured level to halve. A low value points to rapid decline.
